In the NIST ThermoML archive (doi:10.1016/j.fluid.2014.12.036):
± gives the expanded uncertainty stated by the source.

Conditions: Crystal; visual observation

SMILES | Normal melting temperature [°C]
CCCCCCCCCCCCCCCC [hexadecane] | 18.4 ± 0.4
CCCCCCCCCCCCCCCCCC [octadecane] | 28.5 ± 0.4
CCCCCCCCCCCCCC [tetradecane] | 6.2 ± 0.4
